Drawing on ChEMBL document CHEMBL1795337, “Sulfonamides incorporating boroxazolidone moieties are potent inhibitors of the transmembrane, tumor-associated carbonic anhydrase isoforms IX and XII” (Bioorg Med Chem Lett, 2011), this text covers Ki for 10 compounds.

The target in the test is Carbonic anhydrase 9 (Homo sapiens, UniProt Q16790).

Description: Inhibition of human recombinant catalytic domain of carbonic anhydrase 9 preincubated for 15 mins by stopped-flow CO2 hydration assay

In turn, `CCB(CC)OC(=O)[C@@H](N)CCCCNC(=S)Nc1ccc(S(N)(=O)=O)cc1Br` yielded an inhibition constant (Ki) of 92 nM.

`CCB(CC)OC(=O)[C@@H](N)CCCCNC(=S)NCCc1ccc(S(N)(=O)=O)cc1` showed a Ki of 9.6 nM.

In the case of `CCB(CC)OC(=O)[C@@H](N)CCCCNC(=S)Nc1ccc(S(=O)(=O)NCc2ccc(S(N)(=O)=O)cc2)cc1`, the Ki was 7.7 nM.

In turn, `CCB(CC)OC(=O)[C@@H](N)CCCCNC(=S)Nc1ccc(S(=O)(=O)NCCc2ccc(S(N)(=O)=O)cc2)cc1` yielded a Ki of 9 nM.

Take `CCB(CC)OC(=O)[C@@H](N)CCCCNC(=S)Nc1ccc(S(N)(=O)=O)cc1F`: the Ki is 89 nM.

The compound `CCB(CC)OC(=O)[C@@H](N)CCCCNC(=S)Nc1cccc(S(N)(=O)=O)c1` gave a Ki of 9.5 nM.

`CCB(CC)OC(=O)[C@@H](N)CCCCNC(=S)Nc1ccc(S(=O)(=O)Nc2nnc(S(N)(=O)=O)s2)cc1`: the Ki was found to be 8.6 nM.

In turn, `CCB(CC)OC(=O)[C@@H](N)CCCCNC(=S)Nc1ccc(S(N)(=O)=O)cc1` came in with a Ki of 9.3 nM.

As to `CCB(CC)OC(=O)[C@@H](N)CCCCNC(=S)Nc1ccc(S(N)(=O)=O)cc1Cl`, the Ki came to 91 nM.

Take `CCB(CC)OC(=O)[C@@H](N)CCCCNC(=S)NCc1ccc(S(N)(=O)=O)cc1`: the Ki was found to be 9.5 nM.
